Data: patent publication US20230028441A1, “NOVEL HETEROARYL-TRIAZOLE COMPOUNDS AS PESTICIDES” (Bayer Aktiengesellschaft, priority 2019, published 2023)

How the values were obtained:
Format in all cases: in vivo
[1] = tested on: Musca domestica strain WHO-N; test: Musca domestica test (MUSCDO surface treatment & contact assay); details: 24 hours after contact, read-out: efficacy (mortality); for mortality at 4 mg/m2: surface concentration 4 mg/m^2, 30 minutes exposure; for mortality at 20 mg/m2: surface concentration 20 mg/m^2, 30 minutes exposure
Description: (§1) Solvent: Aceton+2000 ppm rapeseed oil methyl ester (RME)
(§2) In order to produce a sufficient, active ingredient containing solution it is necessary to solve the test compound in the solvent-mix (acetone at 2 mg/ml/RME 2000 ppm). This solution is pipetted onto a glazed tile and after evaporation of the acetone, adult flies of the species Musca domestica strain WHO-N are placed onto the dried surface. The exposure time is 30 minutes. Mortality in percent (%) is determined 24 hours after contact of the insects to the treated surface. 100% mortality means that all tested insects are dead, whereas 0% means that no insect died.

[2] = tested on: larvae of the southern green stink bug (Nezara viridula); test: Nezara viridula spray test; details: in Hordeum vulgare, 96 h
Summary of the method: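 Percent mortality of southern green stink bug larvae read 4 days after spraying infested Hordeum vulgare. Test solutions: compound in acetone plus dimethylformamide, diluted with emulsifier-containing water (1000 ppm alkylarylpolyglycol ether).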

[3] = tested on: green peach aphid (Myzus persicae); test: Myzus persicae oral test; details: 120 h
Summary of the method: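 Aphids of mixed population ingest the compound preparation by sucking through a parafilm sheet stretched over wells holding test solution plus IPL41 insect medium (33%+15% sugar). Kill rate in percent is determined five days later.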

[4] = tested on: adult brown dog ticks (Rhipicephalus sanguineus); test: Rhipicephalus sanguineus in-vitro contact test with adult brown dog ticks; details: after 48 hours, read-out: efficacy (ticks dead or moribund); for pest or weed control at 1 µg/cm2, 100 g/ha: 1 μg/cm^2 (=100 g/ha); for pest or weed control at 5 µg/cm2, 500 g/ha: 5 μg/cm^2 (=500 g/ha)
Summary of the method: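 Efficacy is the percentage of adult ticks dead or moribund, meaning immotile or uncoordinated and unable to escape 45-50° C. heat within 5 min. Read 48 h after 5-10 ticks were enclosed at room temperature in acetone-coated glass tubes. Dose 5 μg/cm^2, from a 900 ppm coating solution.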

[5] = tested on: adult engorged female ticks (Rhipicephalus microplus); test: Rhipicephalus (Boophilus) microplus injection test; details: 168 h, egg deposition after 7 days, read-out: efficacy (infertile eggs); for pest or weed control at 0.004 mg: 4 μg/animal
Summary of the method: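 Efficacy is the share of infertile eggs: 100% means none are fertile, 0% means all are fertile. Egg deposition was checked 7 days after injecting 1 μL of DMSO-diluted compound into the abdomen of five engorged female R. microplus, with doubtful eggs kept about 42 days to hatching. The stock was 10 mg in 0.5 mL DMSO.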

[6] = tested on: adult unfed cat fleas (Ctenocephalides felis); test: Ctenocephalides felis oral test; details: 48 h, 100 ppm in cattle blood, after 2 days
Summary of the method: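 Percent flea mortality recorded at 2 days. Compound was dissolved in dimethyl sulfoxide and diluted into cattle blood, which ~20 unfed adult cat fleas ingested through parafilm from a 37°C-heated chamber, their own chamber kept at room temperature.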

[7] = tested on: brown planthopper (Nilaparvata lugens); test: Nilaparvata lugens spray test; details: in Oryza sativa, 96 h
Summary of the method: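 Rice plants (Oryza sativa) sprayed with compound in acetone/DMF diluted in water containing 1000 ppm alkylarylpolyglycol ether emulsifier, then infested with planthoppers. Mortality % scored after 4 days (100% = all killed, 0% = none killed).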

[8] = tested on: Aedes aegypti strain MONHEIM; test: Aedes aegypti test (AEDSAE surface treatment & contact assay); details: 24 hours after contact, read-out: efficacy (mortality); for mortality at 4 mg/m2: surface concentration 4 mg/m^2, 30 minutes exposure; for mortality at 20 mg/m2: surface concentration 20 mg/m^2, 30 minutes exposure
Description: as §1
as §2, with “mosquitoes” for “flies”, “Aedes aegypti” for “Musca domestica”, “MONHEIM” for “WHO-N”

[9] = tested on: adult cat fleas (Ctenocephalides felis); test: Ctenocephalides felis in-vitro contact test, adult cat flea; details: 5 μg/cm^2 (=500 g/ha), after 48 hours, read-out: efficacy (fleas dead or moribund)
Summary of the method: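 Efficacy (%) counts fleas that are dead or moribund, meaning unable to escape heat (45-50 °C, ≤5 min) by climbing. Scoring was done 48 h after 5-10 adults were placed at room temperature in glass tubes. The tubes carried a dried acetone film of compound, 5 μg/cm^2 at 900 ppm.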

Compound | mortality at 4 mg/m2 [1] | mortality at 20 mg/m2 [1] | mortality at 100 g/ha [2] | mortality at 500 g/ha [2] | mortality at 4 ppm [3] | pest or weed control at 1 µg/cm2, 100 g/ha [4] | pest or weed control at 5 µg/cm2, 500 g/ha [4] | pest or weed control at 0.004 mg [5] | pest or weed control at 0.02 mg ([5]; 20 μg/animal) | mortality at 100 ppm [6] | mortality at 500 g/ha [7] | mortality at 4 mg/m2 [8] | mortality at 20 mg/m2 [8] | pest or weed control at 5 µg/cm2 [9] | mortality at 100 g/ha [7]
CC(NC(=O)c1cc(Cl)cc(C(F)(F)F)c1)c1nc(N)nn1-c1ccc(Cl)cn1 (racemic) [I-006, N-[1-[5-amino-2-(5-chloro-2-pyridyl)-1,2,4-triazol-3-yl]ethyl]-3-chloro-5-(trifluoromethyl)benzamide] | 90 to 100% | 90 to 100% | 100% | 100% | 100% | 80% | 100% | 100% | 100% | 100% | 90% | 90 to 100% | 90 to 100% | 100% | 
CNc1nc(C(C)NC(=O)c2cc(C(F)(F)F)cc(C(F)(F)F)c2)n(-c2ncccn2)n1 (centres unmarked) [I-088] | 90 to 100% | 90 to 100% | 100% |  | 100% | 100% | 100% | 100% |  | 100% |  | 90 to 100% | 90 to 100% | 100% | 100%
